Source: paper PMC10272112 (Nature Communications, 2023)
Several values for one entry are separate records, joined by “and”; a condition that tells them apart may be missing. Equal entries are not always repeated.

How the values were obtained:
[1] = target: T1, HDAC6 (Homo sapiens, UniProt Q9UBN7); assay: HDAC-Glo assay; type: biochemical; set-up: purchased BPS Bioscience 50006
T1 sequence (Q9UBN7 1-1215): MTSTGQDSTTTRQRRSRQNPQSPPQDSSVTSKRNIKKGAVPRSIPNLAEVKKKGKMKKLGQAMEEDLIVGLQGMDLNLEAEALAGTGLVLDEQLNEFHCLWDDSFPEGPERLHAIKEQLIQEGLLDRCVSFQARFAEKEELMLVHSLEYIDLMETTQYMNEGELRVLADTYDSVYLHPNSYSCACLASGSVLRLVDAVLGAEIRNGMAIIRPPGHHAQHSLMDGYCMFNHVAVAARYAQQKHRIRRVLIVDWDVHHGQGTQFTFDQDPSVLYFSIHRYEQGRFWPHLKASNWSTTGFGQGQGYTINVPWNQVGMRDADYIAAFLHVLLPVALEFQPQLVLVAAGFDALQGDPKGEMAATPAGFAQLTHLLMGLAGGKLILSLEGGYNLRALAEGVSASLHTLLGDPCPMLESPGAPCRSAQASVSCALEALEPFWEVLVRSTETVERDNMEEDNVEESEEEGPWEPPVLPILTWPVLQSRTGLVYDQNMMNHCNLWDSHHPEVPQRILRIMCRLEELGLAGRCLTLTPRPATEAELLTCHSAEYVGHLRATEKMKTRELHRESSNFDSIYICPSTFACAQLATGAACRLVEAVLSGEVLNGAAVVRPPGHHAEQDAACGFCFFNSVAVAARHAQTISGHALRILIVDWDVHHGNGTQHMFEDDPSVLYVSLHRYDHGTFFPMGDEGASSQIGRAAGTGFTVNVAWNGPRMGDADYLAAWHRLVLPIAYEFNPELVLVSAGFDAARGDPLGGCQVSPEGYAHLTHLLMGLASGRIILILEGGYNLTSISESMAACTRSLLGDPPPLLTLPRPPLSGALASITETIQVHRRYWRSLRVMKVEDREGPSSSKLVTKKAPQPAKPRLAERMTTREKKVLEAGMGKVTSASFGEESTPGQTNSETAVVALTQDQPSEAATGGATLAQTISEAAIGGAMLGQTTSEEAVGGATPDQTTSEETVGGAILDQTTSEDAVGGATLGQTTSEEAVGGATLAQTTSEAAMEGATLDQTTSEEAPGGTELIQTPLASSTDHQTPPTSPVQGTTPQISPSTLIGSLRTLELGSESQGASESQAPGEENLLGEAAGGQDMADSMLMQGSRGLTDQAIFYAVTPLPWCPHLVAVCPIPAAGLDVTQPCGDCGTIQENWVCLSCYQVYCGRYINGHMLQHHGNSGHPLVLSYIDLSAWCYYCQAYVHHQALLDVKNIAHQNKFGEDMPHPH
Experimental: (§1) To validate the inhibition of HDACs by LA and LM and elaborate on the structure-activity relationship (SAR) of enantiomers as well as oxidized versus reduced forms of the molecules, we performed enzyme activity assays for recombinant HDAC1,2,3,6,8 as well as FRET-based binding assay for recombinant HDAC10.
(§2) The experiments were performed according to ref. [48]. […] Drug dosing was performed with a D300e Digital Dispenser (Tecan). HDACs (7 ng/mL for HDAC1, 25 ng/mL for HDAC2, 200 ng/mL for HDAC3/Ncor2 complex, 100 ng/mL for HDAC6, 200 ng/mL for HDAC8) and inhibitors were incubated together at room temperature (RT) for 30 min. After the addition of the HDAC-Glo™ I/II reagent, plates were shaken (800 rpm orbital shaker, 30 s), centrifuged (300 g, 1 min), and incubated at RT for 30 min. Luminescence was detected with a CLARIOstar (BMG Labtech) plate reader.

[2] = test system: α-Tubulin AcK40; assay: α-tubulin acetylation detection by western blot, CBP-HA transfected HEK293T; type: cell-based; details: for α-Tubulin AcK40 acetylation level relative to control: HEK293T
Experimental: 0.2 × 10^6 HEK293T (ATCC: CRL-3216) cells were transfected with pcDNA 3.1-HA CBP plasmids (1 μg/well for the 6-well plate) by FuGENE. After 2 days, cells were treated with ACY-738, lipoic acid, and lipoamide for 7 h, then were washed by ice-cold PBS and lysed in Triton lysis buffer (50 mM Tris, pH 8.0, 150 mM NaCl, 1 mM EDTA, 0.1% TritonX-100 and complete EDTA-free protease inhibitors (Roche)) for analysis. To detect protein acetylation, 0.2 μM Trichostatin A and 5 mM nicotinamide were added to PBS for washing, and 10 μM trichostatin A, 10 mM nicotinamide, and 50 mM sodium butyrate were added to Triton lysis buffer.

[3] = target: HDAC1 (Homo sapiens, UniProt Q13547); assay: HDAC-Glo assay; type: biochemical; set-up: purchased BPS Bioscience 50051; details: 0.5 M TCEP
Experimental: as §1, §2

[4] = log10 M -3.30103, 3 technical replicates

Chain of HDAC1 (Q13547 whole entry): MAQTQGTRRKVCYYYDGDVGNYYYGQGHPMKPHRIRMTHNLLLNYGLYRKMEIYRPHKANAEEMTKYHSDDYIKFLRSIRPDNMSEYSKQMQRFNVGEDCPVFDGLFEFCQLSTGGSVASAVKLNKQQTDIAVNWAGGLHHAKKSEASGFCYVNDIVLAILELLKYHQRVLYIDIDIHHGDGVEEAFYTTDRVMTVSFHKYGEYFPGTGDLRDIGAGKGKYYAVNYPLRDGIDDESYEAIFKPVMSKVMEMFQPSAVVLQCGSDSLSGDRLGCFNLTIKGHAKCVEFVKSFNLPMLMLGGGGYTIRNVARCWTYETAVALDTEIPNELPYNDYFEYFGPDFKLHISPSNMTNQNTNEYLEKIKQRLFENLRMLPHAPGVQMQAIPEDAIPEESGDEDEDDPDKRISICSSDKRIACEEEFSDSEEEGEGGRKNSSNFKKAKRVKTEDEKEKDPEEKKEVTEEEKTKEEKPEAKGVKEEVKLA

O=C(O)CCCCC1CCSS1 (racemic) [(R/S)-LA, (R/S)-lipoic acid]
HDAC enzymatic activity (normalized luminescence) ([1]; 0.5 M TCEP, log10 M -3.30103, 3 technical replicates): 1.458 and 1.424 and 1.356 | HDAC enzymatic activity (normalized luminescence) ([1]; 0.5 M TCEP, log10 M -3.82945, 3 technical replicates): 2.832 and 2.728 and 2.83 | HDAC enzymatic activity (normalized luminescence) ([1]; 0.5 M TCEP, log10 M -4.35788, 3 technical replicates): 6.139 and 5.789 and 5.799 | HDAC enzymatic activity (normalized luminescence) ([1]; 0.5 M TCEP, log10 M -4.88629, 3 technical replicates): 13.455 and 13.5196 and 13.8559 | HDAC enzymatic activity (normalized luminescence) ([1]; 0.5 M TCEP, log10 M -5.41477, 3 technical replicates): 31.3499 and 32.1006 and 33.4073 | HDAC enzymatic activity (normalized luminescence) ([1]; 0.5 M TCEP, log10 M -5.94309, 3 technical replicates): 55.9078 and 57.6015 and 56.5157 | HDAC enzymatic activity (normalized luminescence) ([1]; 0.5 M TCEP, log10 M -6.47756, 3 technical replicates): 76.0987 and 79.5289 and 82.7102 | HDAC enzymatic activity (normalized luminescence) ([1]; 0.5 M TCEP, log10 M -6.87615, 3 technical replicates): 85.7363 and 87.7513 and 88.064 | HDAC enzymatic activity (normalized luminescence) ([1]; no TCEP, log10 M -3.30103, 3 technical replicates): 23.0918 and 22.3431 and 22.7816 | HDAC enzymatic activity (normalized luminescence) ([1]; no TCEP, log10 M -3.82945, 3 technical replicates): 56.1761 and 58.3464 and 57.3647 | HDAC enzymatic activity (normalized luminescence) ([1]; no TCEP, log10 M -4.35788, 3 technical replicates): 82.4637 and 85.6042 and 82.8934 | HDAC enzymatic activity (normalized luminescence) ([1]; no TCEP, log10 M -4.88629, 3 technical replicates): 93.4335 and 99.2455 and 95.9681 | HDAC enzymatic activity (normalized luminescence) ([1]; no TCEP, log10 M -5.41477, 3 technical replicates): 97.1057 and 101.846 and 99.5994 | HDAC enzymatic activity (normalized luminescence) ([1]; no TCEP, log10 M -5.94309, 3 technical replicates): 97.3023 and 99.1974 and 100.246 | HDAC enzymatic activity (normalized luminescence) ([1]; no TCEP, log10 M -6.47756, 3 technical replicates): 99.4261 and 102.712 and 105.54 | HDAC enzymatic activity (normalized luminescence) ([1]; no TCEP, log10 M -6.87615, 3 technical replicates): 96.4036 and 90.044 and 88.9734 | EC50 ([1]; read-out: log EC50 from dose-dependent HDAC inhibition curves (converted)): 1.73 µM | HDAC6 relative activity ([1]; sheet S2b, log conc -3.30103): 1.144 and 1.081 and 1.088 | HDAC6 relative activity ([1]; sheet S2b, log conc -3.82945): 2.37 and 2.452 and 2.46 | HDAC6 relative activity ([1]; sheet S2b, log conc -4.35788): 4.674 and 4.632 and 4.542 | HDAC6 relative activity ([1]; sheet S2b, log conc -4.88629): 10.1866 and 10.4131 and 10.6467 | HDAC6 relative activity ([1]; sheet S2b, log conc -5.41477): 23.025 and 23.2631 and 23.7333 | HDAC6 relative activity ([1]; sheet S2b, log conc -5.94309): 48.9979 and 48.9603 and 49.8705 | HDAC6 relative activity ([1]; sheet S2b, log conc -6.47756): 72.291 and 73.4771 and 73.4953 | HDAC6 relative activity ([1]; sheet S2b, log conc -6.87615): 86.8078 and 88.7475 and 90.3905 | HDAC6 relative activity ([1]; sheet S2d, log conc -3.30103): 1.458 and 1.424 and 1.356 | HDAC6 relative activity ([1]; sheet S2d, log conc -3.82945): 2.832 and 2.728 and 2.83 | HDAC6 relative activity ([1]; sheet S2d, log conc -4.35788): 6.139 and 5.789 and 5.799 | HDAC6 relative activity ([1]; sheet S2d, log conc -4.88629): 13.455 and 13.5196 and 13.8559 | HDAC6 relative activity ([1]; sheet S2d, log conc -5.41477): 31.3499 and 32.1006 and 33.4073 | HDAC6 relative activity ([1]; sheet S2d, log conc -5.94309): 55.9078 and 57.6015 and 56.5157 | HDAC6 relative activity ([1]; sheet S2d, log conc -6.47756): 76.0987 and 79.5289 and 82.7102 | HDAC6 relative activity ([1]; sheet S2d, log conc -6.87615): 85.7363 and 87.7513 and 88.064 | concentration showing substantial increase of α-Tubulin AcK40 acetylation ([2]; 7 h drug incubation): 50 µM | α-Tubulin AcK40 acetylation level relative to control ([2]; 1 mM): 3.4 fold | α-Tubulin AcK40 acetylation level relative to control ([2]; .5 (mM)): 2 fold | HDAC enzymatic activity (normalized luminescence) [3, 4]: 2.253 and 2.122 and 2.222 | raw luminescence signal, HDAC1 inhibition [3, 4]: 9033 and 8544 and 8916 | HDAC enzymatic activity (normalized luminescence) ([3]; log10 M -3.82945, 3 technical replicates): 6.603 and 6.6 and 6.7561
